Patent publication US20190125896A1, “ANTI-INFECTIVE COMPOSITIONS COMPRISING PHYTOGLYCOGEN NANOPARTICLES” (MIREXUS BIOTECHNOLOGIES INC., priority 2016, published 2019)
Read-outs that look alike come from different tables or passages of the source.

Tests used:
C. utilis ATCC9950 = experiment: Sensitization to antibiotics: MIC in medium supplemented with phytoglycogen; format: cell-based; settings: Candida utilis
Description: (§1) MIC assays as defined in Example 15 were performed in sterile and untreated 96 well microtitre plates according to the broth micro-dilution technique described in either the Clinical and Laboratory Standards Institute document M07-A9: Methods for Dilution Antimicrobial Susceptibility Tests for Bacteria that Grow Aerobically; Approved Standard and document M27-A2 Reference Method for Broth Dilution Antifungal Susceptibility Testing of Yeasts; Approved Standard—Second Edition, with the exception that, where indicated, medium was additionally supplemented with native or cationized phytoglycogen. Assessments done using C. utilis ATCC9950, B. subtilis 168 and E. coli AB264 employed native or cationized phytoglycogen at concentrations ⅛, ¼, ½ their respective MIC values for cationized phytoglycogen. Assessments of the opportunistic pathogen P. aeruginosa PAO1 were made at final in-assay concentrations of 0.5, 1 or 10 mg native or cationized phytoglycogen.ml^−1. Experiments were performed as in-assay duplicates, and were repeated a minimum of three times (n=6).
(§2) MIC assays were performed in duplicate within each experiment and were repeated a minimum three times to confirm the data (n=6). MIC values with a four-fold or greater change relative to the non-supplemented medium MIC represent a statistically-significant change in MIC value. Only those antibiotic-cationized phytoglycogen combinations which caused a four-fold change relative to the non-supplemented medium MIC were deemed as indicative of resulting in potentiation (MIC value was less), or tolerance (MIC value increased).

Candida utilis ATCC9950 = experiment: MIC of amphotericin B-phytoglycogen conjugate, modified broth microdilution; format: cell-based; settings: 35° C.
Description: The activity of the amphotericin B-phytoglycogen conjugate (PHG-AMB) was assayed against a yeast, Candida utilis ATCC9950, using a modified broth microdilution assay (CLSI M27-A2; Example 15). RPMI 1640 medium (Sigma-Aldrich; Canada), containing no sodium bicarbonate, supplemented with 0.165 M MOPS and adjusted to a pH of 7.0, was used for the assay. Stocks of 1600 μg AMB/ml DMSO were stored at −80° C. and diluted prior to use. 500 μg PHG-AMB.ml^−1 RPMI 1640 was prepared fresh on the day of assay. Briefly, doubling dilutions of 16 μg AMB.ml^−1 RPMI 1640 and 500 μg PHG-AMB.ml^−1 RPMI 1640 were prepared by serial two-fold dilution in RPMI 1640. Controls comprised AMB supplemented with phytoglycogen adjusted to mimic the changing concentration of PHG-AMB in the wells. Negative growth control wells contained sterile medium. Positive growth control wells contained medium or medium supplemented with phytoglycogen. […] Assays were performed as in duplicate replicate with a minimum of three independent replicates.

P. aeruginosa PAO1 = experiment: Sensitization to antibiotics: MIC in medium supplemented with phytoglycogen; format: cell-based, Pseudomonas aeruginosa; settings: for ↓ Fold-change in MIC (cationized phytoglycogen) MIC.5 mg/ml: 0.5 mg cationized phytoglycogen · ml^−1 Mueller-Hinton Broth; for ↓ Fold-change in MIC (cationized phytoglycogen) MIC1 mg/ml: 1 mg cationized phytoglycogen · ml^−1 Mueller-Hinton Broth; for ↓ Fold-change in MIC (cationized phytoglycogen) MIC10 mg/ml: 10 mg cationized phytoglycogen · ml^−1 Mueller-Hinton Broth
Description: as §1, §2

E. coli AB264 = experiment: as above; format: cell-based; settings: Escherichia coli; for fold-change reduction in MIC, CP0.125: cationized phytoglycogen at 0.125 of its MIC; for fold-change reduction in MIC, CP0.25: cationized phytoglycogen at 0.25 of its MIC; for fold-change reduction in MIC, CP0.5: cationized phytoglycogen at half-strength of its MIC
B. subtilis 168 = experiment: as above; format: cell-based; settings: Bacillus subtilis; for fold-change reduction in MIC, CP0.125: cationized phytoglycogen at 0.125 of its MIC; for fold-change reduction in MIC, CP0.25: cationized phytoglycogen at 0.25 of its MIC; for fold-change reduction in MIC, CP0.5: cationized phytoglycogen at half-strength of its MIC
[1] = test system: P. aeruginosa PAO1 biofilm; experiment: Biofilm eradication: 20 h biofilms treated with antibiotic and cationized phytoglycogen; format: cell-based, Pseudomonas aeruginosa; settings: 24 h, medium alone
Description: Biofilm growth and treatments were performed in sterile 96 well polystyrene plates. Sterile solutions of gamma-irradiated cationized phytoglycogen was prepared by reconstitution and dilution as required in sterile Mueller-Hinton broth. P. aeruginosa PAO1 stocks were revived by sub-culturing P. aeruginosa PAO1 (37° C., 150 rpm, 16-18 h) in Mueller-Hinton broth (Oxoid; Fisher Scientific, Canada). The inoculum was prepared immediately prior to use by diluting in sterile Mueller-Hinton broth to a final in-assay cell density of 5×10^5 CFU.ml^−1. 100 μl of this solution was transferred to wells and incubated (37° C., 150 rpm). Sterile broth was the negative growth control. At 20 h, plates were transferred to a biological safety cabinet, well contents were gently aspirated and the wells rinsed with sterile 0.9% (wt/vol) NaCl. […] Positive growth controls contained inoculated medium, non-supplemented or with 1 or 10 mg cationized phytoglycogen.ml^−1. Plates were incubated at 37° C. for a further 24 h, after which biofilms were quantitated as previously described. Experiments were done in quadruplicate replicate and repeated three times (n=12).

[2] = Pseudomonas aeruginosa, PAO1, P. aeruginosa, non-supplemented Mueller-Hinton Broth, read-out: MIC
[3] = P. aeruginosa, non-supplemented Mueller-Hinton Broth

Molecule	↓ Fold-change in MIC (cationized phytoglycogen) MIC.5 mg/ml (P. aeruginosa PAO1; P. aeruginosa)	↓ Fold-change in MIC (cationized phytoglycogen) MIC1 mg/ml (P. aeruginosa PAO1; P. aeruginosa)	↓ Fold-change in MIC (cationized phytoglycogen) MIC10 mg/ml (P. aeruginosa PAO1; P. aeruginosa)	MIC (P. aeruginosa PAO1; [2])	fold-change reduction in MIC, CP0.125 (E. coli AB264)	fold-change reduction in MIC, CP0.25 (E. coli AB264)	fold-change reduction in MIC, CP0.5 (E. coli AB264)	fold-change reduction in MIC, CP0.125 (B. subtilis 168)	fold-change reduction in MIC, CP0.25 (B. subtilis 168)	fold-change reduction in MIC, CP0.5 (B. subtilis 168)	also measured
C[C@@H]1[C@H](O)[C@@H](C)/C=C/C=C/C=C/C=C/C=C/C=C/C=C/[C@H](O[C@@H]2O[C@H](C)[C@@H](O)[C@H](N)[C@@H]2O)C[C@@H]2O[C@](O)(C[C@@H](O)C[C@@H](O)[C@H](O)CC[C@@H](O)C[C@@H](O)CC(=O)O[C@H]1C)C[C@H](O)[C@H]2C(=O)O [amphotericin B]											fold-change reduction in MIC, CP0.125 (C. utilis ATCC9950; cationized phytoglycogen at 0.125 of its MIC): 1-2 fold; fold-change reduction in MIC, CP0.25 (C. utilis ATCC9950; cationized phytoglycogen at 0.25 of its MIC): 1 fold; fold-change reduction in MIC, CP0.5 (C. utilis ATCC9950; cationized phytoglycogen at half-strength of its MIC): ↓4 fold; MIC (Candida utilis ATCC9950; RPMI 1640, 48 h): 0.5 μg AMB.ml^−1; MIC (Candida utilis ATCC9950; RPMI 1640 supplemented with phytoglycogen, 48 h): 0.5 μg AMB.ml^−1
CC1(C)S[C@@H]2[C@H](NC(=O)[C@H](N)c3ccccc3)C(=O)N2[C@H]1C(=O)O [ampicillin]	↓ 8 fold	↓ 8-16 fold	2 fold	1020 µg/mL	1-2 fold	1-2 fold	1-2 fold	1 fold	1 fold	2 fold	
CC1(C)S[C@@H]2[C@H](NC(=O)C(C(=O)O)c3ccccc3)C(=O)N2[C@H]1C(=O)O (stereo partly shown) [carbenicillin]	↓ 16-32 fold	↓ 32 fold	↓ 8-16 fold	64 µg/mL	1-2 fold	↓4-8 ^ fold	↓8-16^ fold	1 fold	2 fold	↓4-8 fold	
CC(C)(O/N=C(\C(=O)N[C@@H]1C(=O)N2C(C(=O)[O-])=C(C[n+]3ccccc3)CS[C@H]12)c1csc(N)n1)C(=O)O [ceftazidime]	↓ 8 fold	↓ 32-64 fold	↓ 4-8 fold	2 µg/mL							
O=C(N[C@H](CO)[C@H](O)c1ccc([N+](=O)[O-])cc1)C(Cl)Cl [chloramphenicol]	↓ 4 fold	↓ 8 fold	2 fold	64 µg/mL	1-2 fold	1-2 fold	1-2 fold	1 fold	↓2-4 fold		
O=C(O)c1cn(C2CC2)c2cc(N3CCNCC3)c(F)cc2c1=O [ciprofloxacin]											change in biofilm of 20 h biofilms ([1]; at the MIC): no change in biofilm; reduction of biofilm ([1]; four-fold the MIC): 73%; reduction of biofilm ([1]; two-fold the MIC): 64%
CC[C@H]1OC(=O)[C@H](C)[C@@H](O[C@H]2C[C@@](C)(OC)[C@@H](O)[C@H](C)O2)[C@H](C)[C@@H](O[C@@H]2O[C@H](C)C[C@H](N(C)C)[C@H]2O)[C@](C)(O)C[C@@H](C)C(=O)[C@H](C)[C@@H](O)[C@]1(C)O [erythromycin]	↓ 4 fold	↓ 8 fold	1-2 fold	128 µg/mL	1-2 fold	1-2 fold	1-2 fold	1-2 fold	↓2-4 fold	↓2-4 fold	
CCn1cc(C(=O)O)c(=O)c2ccc(C)nc21 [nalidixic acid]	↓ 4-32 fold	↓ 16-32 fold	↓ 8-16 fold	1020 µg/mL							
CO[C@@H]1[C@@H](OC(N)=O)[C@@H](O)[C@H](Oc2ccc3c(O)c(NC(=O)c4ccc(O)c(CC=C(C)C)c4)c(=O)oc3c2C)OC1(C)C [novobiocin]	↓ 4-16 fold	↓ 16-32 fold	↓ 4 fold	2050 µg/mL							
CC1(C)S[C@@H]2[C@H](NC(=O)Cc3ccccc3)C(=O)N2[C@H]1C(=O)O [penicillin G]	↓ 16-32 fold	↓64-128 fold	↓ 2-4 fold		1-2 fold	↓4-8 ^ fold	↓8 fold	1-2 fold	↓8-16 fold	↓16-32 fold	MIC (P. aeruginosa PAO1; [3]): 12500 µg/mL
CN(C)[C@@H]1C(O)=C(C(N)=O)C(=O)[C@@]2(O)C(O)=C3C(=O)c4c(O)cccc4[C@@](C)(O)[C@H]3C[C@@H]12 [tetracycline]	↓ 8 fold	↓ 8 fold	2 fold	16 to 32 µg/mL							
CN[C@H](CC(C)C)C(=O)N[C@H]1C(=O)N[C@@H](CC(N)=O)C(=O)N[C@H]2C(=O)N[C@H]3C(=O)N[C@H](C(=O)N[C@H](C(=O)O)c4cc(O)cc(O)c4-c4cc3ccc4O)[C@H](O)c3ccc(c(Cl)c3)Oc3cc2cc(c3O[C@@H]2O[C@H](CO)[C@@H](O)[C@H](O)[C@H]2O[C@H]2C[C@](C)(N)[C@H](O)[C@H](C)O2)Oc2ccc(cc2Cl)[C@H]1O [vancomycin]	↓ 2-4 fold	↓ 16 fold	↓ 4 fold		1-2 fold	↓2-4 ^ fold	↓4-16^ fold	1 fold	1 fold	1-2 fold	MIC (P. aeruginosa PAO1; Pseudomonas aeruginosa, PAO1, read-out: MIC (μg · ml^−1)): 1020 µg/mL
gentamicin	2 fold	2 fold	1 fold		1-2 fold	2 fold	↓4-8 ^ fold	1-2 fold	↓2-4 fold	↓4-8 fold	MIC (P. aeruginosa PAO1; [3]): 0.5 µg/mL
polymyxin B [polymixin B]	1-2 fold	↓ 2-4 fold	2 fold								MIC (P. aeruginosa PAO1; [3]): 0.125 to 0.25 µg/mL
